Consider three compounds from article PMC4976923, “Potent Allosteric Dengue Virus NS5 Polymerase Inhibitors: Mechanism of Action and Resistance Profiling” (PLoS Pathogens, 2016).

For data set [1], the system named is clinical DENV2 isolate MY97-10340. The data set is described as follows: DENV2 infected A549 cells, high content imaging (HCI). Type of data set: cell-based. Particulars: Dengue virus, 48 hr. As to the method: (§1) 2 Co mpound testing with DENV dn I FAPA assays. Final dn I assa y reaction mixtures
(§2) 3 contained 100 nM DENV 5 ´UTR-L-3´UTR IVT RNA, 20 µ M ATP, 20 µM GTP, 20 µM
(§3) 4 UTP, 5 µM ATTO -CTP, and 100 nM of DENV FL NS5 protein in 15 µl in assa y buffer
(§4) 5 comprising 50 mM Tris/ HCl, pH 7.5, 10 mM KCl, 1 mM MgCl2, 0.3 mM MnCl2 (DENV2
(§5) 6 and 4) or 1 mM MnCl 2 (DENV1 and 3), 0.001% Triton- X-100 and 10 µ M cystein e [ 1] . To
(§6) 7 perform dose-respons e inhibition measurements, compounds from 0- 20 or - 100 µM
(§7) 8 concentr ations are two -fold seriall y diluted into 384-well black opaqu e plat es (Corning
(§8) 9 Costar), after which 100 nM DENV FL NS5 protein was added into resp ect ive wells. The
(§9) 10 plates wer e sealed, b riefl y shak en and centrif uged at 1500 rpm for 30 sec and incubated at RT
(§10) 11 for 15 min. Thereafter,RNA and ATTO -CTP, ATP, GTP and UTP were added to the wells to
(§11) 12 start the reactions. The pl ates wer e re-seal ed, shaken and centrifuged as before, followed b y
(§12) 13 incubation RT for 120 min. […]
(§13) 15 intestinal phosphatase (CIP), re- incubation at RT for 60 min and read on a Tecan Safire II
(§14) 16 microplate reader. […]
(§15) 8 DENV envelope protein ) and DRAQ5 (for nucl ear DNA) . Quantifications of DENV
(§16) 9 envelope protein were determined using the Opera high content imaging s ystem and anal ysis […]
(§17) 17 µM concentrations. At 48 hr of post-incubation, r enilla luciferas e activities were measured […]

In data set [2] the test system is DENV3 strain MY05-34640. As to the kind of experiment: DENV3 infected A549 cells, high content imaging (HCI). Type of data set: cell-based. The note with it: 48 hr. As to the method:
as §1, §2, §3, §4, §5, §6, §7, §8, §9, §10, §11, §12, §13, §14, §15, §16, §17

Data set [3] deals with HuH-7. As to the kind of experiment: in vitro. Type of data set: cell-based. Particulars: HuH-7 (DENV2 replicon cells); 48 hr; ATP levels. As for the experimental part: A549, BHK-21 and Huh7 cells bearing stable DENV2 sub-genomic replicon or transiently electroporated DENV2-NGC replicon or infectious virus cDNAs were seeded into 384-well microplate (3,000 cells per well). After over-night incubation at 37°C with 5% CO2, the cells were treated with 2-fold serially diluted compounds, starting from 20 or 50 μM. At 48 hr of post-incubation, renilla luciferase activities were measured with the ViviRen live-cell substrate (Promega, USA) according to the manufacturer’s protocol. CellTiter-Glo reagent (Promega, USA) was then added to determine cytotoxic effects of compounds. For the HCV replicon assay, Huh-7.5 cells harboring the HCV replicon were seeded into a 96-well microplate (20,000 cells per well). At 48 hr after compound treatment, cells were assayed for firefly luciferase activity by using a Bright-Glo luciferase assay (Promega, USA). NITD-008, a nucleoside inhibitor of DENV and HCV was added as a control.
A general note: In antiviral work, replicon cells carry a viral genome segment that copies itself.

The target in data set [4] is T1, DENV3 FL NS5 (Dengue virus type 3, UniProt Q6YMS4).
T1 construct: 100 nM DENV FL NS5 protein was added; made in house
The note with it: read-out: DENV FL NS5 de novo initiation FAPA, IC50, DENV3; cited from earlier work.

In data set [5] the test system is clinical isolates of DENV1-4. The note with it: across four serotypes; cited from earlier work.
The target in data set [6] is T2, DENV4 FL NS5 (Dengue virus type 4, UniProt P09866).
T2 construct: 100 nM DENV FL NS5 protein was added; made in house
Type of data set: biochemical.

T2 sequence (P09866 2488-3387): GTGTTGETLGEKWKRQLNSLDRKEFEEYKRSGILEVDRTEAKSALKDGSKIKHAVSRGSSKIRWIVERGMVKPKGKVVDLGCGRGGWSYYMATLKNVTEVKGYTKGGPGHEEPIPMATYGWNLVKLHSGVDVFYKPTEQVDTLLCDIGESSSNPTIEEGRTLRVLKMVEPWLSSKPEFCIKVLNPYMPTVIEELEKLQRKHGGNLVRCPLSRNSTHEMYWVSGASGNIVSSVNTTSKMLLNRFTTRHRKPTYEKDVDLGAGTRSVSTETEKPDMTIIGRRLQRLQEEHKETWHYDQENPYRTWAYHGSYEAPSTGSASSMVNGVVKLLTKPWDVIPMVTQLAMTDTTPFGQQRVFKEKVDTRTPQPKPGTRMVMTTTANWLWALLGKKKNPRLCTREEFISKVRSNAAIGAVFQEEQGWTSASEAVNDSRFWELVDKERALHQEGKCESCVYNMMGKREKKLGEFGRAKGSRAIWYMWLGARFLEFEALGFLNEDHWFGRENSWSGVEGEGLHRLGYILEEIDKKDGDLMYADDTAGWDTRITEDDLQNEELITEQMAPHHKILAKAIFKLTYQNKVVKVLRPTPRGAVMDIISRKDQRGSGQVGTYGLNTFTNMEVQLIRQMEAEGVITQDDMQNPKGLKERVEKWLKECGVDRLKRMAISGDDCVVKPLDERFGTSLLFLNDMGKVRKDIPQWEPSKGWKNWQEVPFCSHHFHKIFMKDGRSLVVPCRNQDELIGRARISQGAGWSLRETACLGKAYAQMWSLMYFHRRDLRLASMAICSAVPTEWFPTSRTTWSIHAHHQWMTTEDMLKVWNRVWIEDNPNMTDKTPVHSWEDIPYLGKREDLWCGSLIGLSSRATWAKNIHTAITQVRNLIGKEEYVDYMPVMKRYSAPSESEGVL
T1 sequence (Q6YMS4 2491-3390): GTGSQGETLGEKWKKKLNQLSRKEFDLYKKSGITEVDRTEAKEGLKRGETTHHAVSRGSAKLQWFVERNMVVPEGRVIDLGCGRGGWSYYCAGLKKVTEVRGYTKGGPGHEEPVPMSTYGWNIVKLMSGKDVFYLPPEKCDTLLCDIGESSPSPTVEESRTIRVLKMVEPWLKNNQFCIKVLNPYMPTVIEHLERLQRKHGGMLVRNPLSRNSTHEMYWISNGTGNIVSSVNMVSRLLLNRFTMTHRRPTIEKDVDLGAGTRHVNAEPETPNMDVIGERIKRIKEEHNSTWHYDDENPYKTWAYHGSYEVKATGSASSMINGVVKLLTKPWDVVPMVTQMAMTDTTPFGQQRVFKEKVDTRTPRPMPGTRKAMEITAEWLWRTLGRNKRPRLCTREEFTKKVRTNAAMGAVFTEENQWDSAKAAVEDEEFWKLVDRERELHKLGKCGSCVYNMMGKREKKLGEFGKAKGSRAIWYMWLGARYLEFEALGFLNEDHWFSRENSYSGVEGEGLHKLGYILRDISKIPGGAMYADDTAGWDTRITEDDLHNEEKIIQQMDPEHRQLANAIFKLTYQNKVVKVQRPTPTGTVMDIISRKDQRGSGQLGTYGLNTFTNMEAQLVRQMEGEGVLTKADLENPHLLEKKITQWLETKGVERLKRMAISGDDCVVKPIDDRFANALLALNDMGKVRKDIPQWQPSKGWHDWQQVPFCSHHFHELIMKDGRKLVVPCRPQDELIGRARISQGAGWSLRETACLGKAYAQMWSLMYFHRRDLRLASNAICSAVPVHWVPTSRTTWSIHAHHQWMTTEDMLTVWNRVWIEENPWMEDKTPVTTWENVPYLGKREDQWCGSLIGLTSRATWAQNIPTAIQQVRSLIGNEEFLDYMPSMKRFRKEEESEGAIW

What is called EC50 is the concentration giving half of the maximal effect. Take `COc1cccc(S(=O)(=O)NC(=O)c2cc(-c3ccc(C#CCO)s3)c(OC)cc2C)c1` [Compound 26i]: the EC50 was 26.9 µM in data set [1] and 16.8 µM in data set [2].
In general, CC50 refers to the concentration that lowers cell viability or growth by half. One may read the IC50 as the point on the concentration scale where inhibition reaches its midpoint. `COc1cccc(S(=O)(=O)NC(=O)c2cc(-c3ccc(C#CCO)s3)c(OC)cc2OC)c1` [Compound 27] yielded a CC50 in data set [3] of more than 50 µM. In data set [4], the IC50 was 0.048 µM. Further, the EC50 in data set [5] is approximately 2 µM.
`COc1cc(OC)c(-c2ccc(C#CCO)s2)cc1C(=O)NS(=O)(=O)c1cccc2cccnc12` [Compound 29]: the “mode of inhibition with respect to viral RNA substrate” value in data set [6] (Lineweaver-Burk plots, 0–500 nM RNA) is given as “uncompetitive”. The “mode of inhibition with respect to GTP” value in data set [6] (Lineweaver-Burk plots, 0–50 μM GTP) was “uncompetitive inhibition”. Moreover, the “mode of inhibition at high GTP concentrations” value in data set [6] (high GTP concentrations) is given as “non-competitive mode of inhibition”.
